The numbers were not newly measured in US5317003A, “Herbicidal compositions comprising glyphosate salts and alkoxylated quaternary amine surfactants” (Monsanto Company, priority 1992, dated 1994), which cites them from elsewhere.

For `O=C(O)CNCP(=O)(O)O` [N-phosphonomethylglycine], the solubility in water result is on record as “relatively insoluble”.
